Experimental data published in patent publication US5922319A, “Methods of treating eye conditions with human leukocyte elastase (HLE) inhibitory agents” (University of Kentucky Research Foundation, priority 1989, dated 1999).

Tested on: rabbit corneas thermally burned (corneal scarring, fibroblast proliferation, neovascularization)
Assay: Thermal corneal burn in rabbit eyes, topical eye drops for two weeks, blind histopathology (H&E)
Format: in vivo
Procedure: 26 rabbits were tranquilized with acetylpromazine maleate, 16 mg/kg intramuscularly. 2% lidocaine HCl eye drops were instilled in each eye for corneal anesthesia. Once the corneas were anesthetized, an eyelid speculum was inserted and the lids were then separated. The corneas of each eye were thermally coagulated with the tip of a battery-powered ophthalmic cautery. […] Two drops of solution A, B or C were instilled in designated treated eyes every 15 min for 6 hrs., then every 2 hrs. for 12 hrs. Following this, two eye drops of the same solutions were instilled four times a day. Daily eye examination was performed and photographs were taken. Two weeks after treatment the rabbits were sacrificed by […] intracardiac injection of T-61 ([…]). Subsequently, the rabbits, eyeballs were enucleated, the globes placed in Bounri's solution (10% formalin solution) and submitted for histopathology cell analysis. The eyes were fixed with 10% formalin solution and labeled right (R) and left (L), as appropriate sectioned and stained with H & E (hematoxylin & eosin stains). Histological sections were read by a pathologist without knowledge of the previously undertaken experimental procedure (blind test).

SMILES: COC(=O)CCC(=O)N[C@@H](C)C(=O)N[C@@H](CCCCNC(=O)OCc1ccccc1)C(=O)N1CCC[C@H]1C(=O)CN(C(=O)Sc1nnnn1-c1ccccc1)C(C)C [Compound 2, S-(1-phenyl-5-tetrazoyl)-N-[methoxysuccinyl-alanyl-(Nε -Carbobenzoxy)lysylprolylmethyl]-N-isopropyl-thiocarbamate]
- Microscopic description of rabbit eyes: intensity of the reaction compared with the untreated specimen (Solution B, 10 μg/ml in normal saline with 1.4% w/v polyvinyl alcohol, eye drops, two weeks after corneal burn): The reaction is not quite as intense
- Protection against scarring due to corneal burns (magnitude) (Solution C, 50 μg/ml, versus untreated eyes): tenfold
- Overall effect of ophthalmic solutions on fibrosis, neovascularization and inflammation in corneal wound-healing (ophthalmic solutions B or C, rabbit corneal burn): effective in reducing fibrosis, neovascularization and inflammation
